ChEMBL document CHEMBL3885861, “Open TG-GATES”

Organism: Rattus norvegicus
Assay: Open TG-GATES - Regimen: Single
Type: toxicity, organism-based, Sprague-Dawley
Parameters: regimen Single, gender Male, age 6 weeks
Details: in vivo, po, 100 mg/kg, route gavage, dose level Low; for APTT / Bas / Eos / Fbg / Hb / Ht / Lym / MCH / MCHC / MCV / Mono / Neu / PT / Plat / RBC / Ret / WBC: tissue Blood; for KIDNEY_L / KIDNEY_R / KIDNEY_TOTAL: tissue Kidney; for LIVER: tissue Liver; for A/G / ALP / ALT / AST / BUN / CRE / Ca / Cl / DBIL / GLC / IP / K / LDH / Na / PL / RALB / TBIL / TC / TG / TP / gamma-GTP: tissue Plasma

CCc1cc(C(N)=S)ccn1 [ETHIONAMIDE]
TERMINAL_BW (3 h): 224.2 g | APTT (3 h): 16.6 s | Bas (3 h): 0% | Eos (3 h): 1% | Fbg (3 h): 211.2 mg/dL | Hb (3 h): 13.8 g/dL | Ht (3 h): 40.6% | Lym (3 h): 73.6% | MCH (3 h): 21.8 pg | MCHC (3 h): 34% | MCV (3 h): 64 fL | Mono (3 h): 8.4% | Neu (3 h): 17.4% | PT (3 h): 12.4 s | Plat (3 h): 119.3 x10_4/uL | RBC (3 h): 635.8 x10_4/ul | Ret (3 h): 7.1% | WBC (3 h): 90.5 x10_2/uL | KIDNEY_L (3 h): 1 g | KIDNEY_R (3 h): 1 g | KIDNEY_TOTAL (3 h): 1.9 g | LIVER (3 h): 10.7 g | A/G (3 h): 1.9 | ALP (3 h): 802.2 IU/L | ALT (3 h): 36 IU/L | AST (3 h): 68.6 IU/L | BUN (3 h): 15 mg/dL | CRE (3 h): 0.7 mg/dL | Ca (3 h): 11 mg/dL | Cl (3 h): 103 meq/L | DBIL (3 h): 0.012 mg/dL | GLC (3 h): 181.6 mg/dL | IP (3 h): 9.2 mg/dL | K (3 h): 4.4 meq/L | LDH (3 h): 109 IU/L | Na (3 h): 140.6 meq/L | PL (3 h): 128.4 mg/dL | RALB (3 h): 3.6 g/dL | TBIL (3 h): 0.4 mg/dL | TC (3 h): 73 mg/dL | TG (3 h): 58 mg/dL | TP (3 h): 5.5 g/dL | gamma-GTP (3 h): 1.6 IU/L | TERMINAL_BW (6 h): 229.4 g | APTT (6 h): 17.1 s | Bas (6 h): 0% | Eos (6 h): 0.8% | Fbg (6 h): 208.8 mg/dL | Hb (6 h): 14.2 g/dL | Ht (6 h): 42.1% | Lym (6 h): 77.6% | MCH (6 h): 22.1 pg | MCHC (6 h): 33.7% | MCV (6 h): 65.7 fL | Mono (6 h): 8% | Neu (6 h): 14.2% | PT (6 h): 13.4 s | Plat (6 h): 114.8 x10_4/uL | RBC (6 h): 640.6 x10_4/ul | Ret (6 h): 7.5% | WBC (6 h): 84 x10_2/uL | KIDNEY_L (6 h): 1 g | KIDNEY_R (6 h): 1 g | KIDNEY_TOTAL (6 h): 2 g | LIVER (6 h): 10.8 g | A/G (6 h): 1.8 | ALP (6 h): 908.4 IU/L | ALT (6 h): 31.6 IU/L | AST (6 h): 77.4 IU/L | BUN (6 h): 15.6 mg/dL | CRE (6 h): 0.5 mg/dL | Ca (6 h): 11 mg/dL | Cl (6 h): 105.4 meq/L | DBIL (6 h): 0.004 mg/dL | GLC (6 h): 187.4 mg/dL | IP (6 h): 9.8 mg/dL | K (6 h): 4.5 meq/L | LDH (6 h): 123.4 IU/L | Na (6 h): 140.4 meq/L | PL (6 h): 126 mg/dL | RALB (6 h): 3.5 g/dL | TBIL (6 h): 0.4 mg/dL | TC (6 h): 69.6 mg/dL | TG (6 h): 54.4 mg/dL | TP (6 h): 5.5 g/dL | gamma-GTP (6 h): 1 IU/L | TERMINAL_BW (9 h): 222.6 g | APTT (9 h): 18.1 s | Bas (9 h): 0% | Eos (9 h): 1.4% | Fbg (9 h): 210.2 mg/dL | Hb (9 h): 14.2 g/dL | Ht (9 h): 42.2% | Lym (9 h): 70% | MCH (9 h): 21.7 pg | MCHC (9 h): 33.7% | MCV (9 h): 64.4 fL | Mono (9 h): 8.6% | Neu (9 h): 20% | PT (9 h): 14.1 s | Plat (9 h): 116.8 x10_4/uL | RBC (9 h): 655.2 x10_4/ul | Ret (9 h): 8.3% | WBC (9 h): 79.2 x10_2/uL | KIDNEY_L (9 h): 1 g | KIDNEY_R (9 h): 1 g | KIDNEY_TOTAL (9 h): 2 g | LIVER (9 h): 9.8 g | A/G (9 h): 2 | ALP (9 h): 756.6 IU/L | ALT (9 h): 33.8 IU/L | AST (9 h): 73.4 IU/L | BUN (9 h): 15 mg/dL | CRE (9 h): 0.6 mg/dL | Ca (9 h): 10.7 mg/dL | Cl (9 h): 105.2 meq/L | DBIL (9 h): 0.018 mg/dL | GLC (9 h): 205.4 mg/dL | IP (9 h): 10.7 mg/dL | K (9 h): 4.5 meq/L | LDH (9 h): 95.6 IU/L | Na (9 h): 142 meq/L | PL (9 h): 100.4 mg/dL | RALB (9 h): 3.5 g/dL | TBIL (9 h): 0.4 mg/dL | TC (9 h): 53.4 mg/dL | TG (9 h): 28.4 mg/dL | TP (9 h): 5.3 g/dL | gamma-GTP (9 h): 1.4 IU/L | TERMINAL_BW (24 h): 231 g | APTT (24 h): 16.3 s | Bas (24 h): 0% | Eos (24 h): 1.2% | Fbg (24 h): 214.8 mg/dL | Hb (24 h): 14.3 g/dL | Ht (24 h): 42.3% | Lym (24 h): 62.4% | MCH (24 h): 21.6 pg | MCHC (24 h): 33.8% | MCV (24 h): 63.8 fL | Mono (24 h): 12.8% | Neu (24 h): 23.8% | PT (24 h): 12.2 s | Plat (24 h): 117.2 x10_4/uL | RBC (24 h): 663 x10_4/ul | Ret (24 h): 8% | WBC (24 h): 110 x10_2/uL | KIDNEY_L (24 h): 1.1 g | KIDNEY_R (24 h): 1.1 g | KIDNEY_TOTAL (24 h): 2.1 g | LIVER (24 h): 11.7 g | A/G (24 h): 1.9 | ALP (24 h): 884.8 IU/L | ALT (24 h): 38.6 IU/L | AST (24 h): 80.4 IU/L | BUN (24 h): 16.4 mg/dL | CRE (24 h): 0.6 mg/dL | Ca (24 h): 10.9 mg/dL | Cl (24 h): 104.6 meq/L | DBIL (24 h): 0.026 mg/dL | GLC (24 h): 193.2 mg/dL | IP (24 h): 7.8 mg/dL | K (24 h): 4.6 meq/L | LDH (24 h): 90.4 IU/L | Na (24 h): 141.4 meq/L | PL (24 h): 136 mg/dL | RALB (24 h): 3.6 g/dL | TBIL (24 h): 0.3 mg/dL | TC (24 h): 67.6 mg/dL | TG (24 h): 103.8 mg/dL | TP (24 h): 5.5 g/dL | gamma-GTP (24 h): 1.8 IU/L
